Data: patent US4200650A, “2-Amino-cyclopent-1-ene-1-thiocarboxylic acid-disulfides to treat noradrenergic malfunctions” (Richter Gedeon Vegyeszeti Gyar Rt., priority 1976, dated 1980)

Tests used:
dopamine-β-hydroxylase [1] = conditions: literature, cited from earlier work
dopamine-β-hydroxylase [2] = assay: Determination of noradrenaline and dopamine levels of brain (dopamine-β-hydroxylase inhibiting effect); format: in vivo, male Wistar rats; conditions: i.p., ± standard error
Protocol: (§1) The dopamine-β-hydroxylase inhibiting effects of the new compounds according to the invention were examined by the following tests:
(§2) The tests were performed on male Wistar rats weighing 150 to 200 g. The dopamine-β-hydroxylase inhibiting effects of the compounds were evaluated by determining the change of noradrenaline, dopamine and adrenaline levels of the cerebrum, heart, spleen and adrenal gland. The serotonine and 5-hydroxy-indolylacetic acid levels of the cerebrum were also determined. The measurements were performed as follows:
(§3) The animals were decapitated, the cerebrum, heart, spleen and adrenal gland were removed quickly, and the organs were frozen by placing them onto a metal sheet cooled with dry ice. The frozen organs were stored for maximum one night at -20° C.
Determination of the noradrenaline, dopamine, serotonine and 5-hydroxy-indolylacetic acid contents of brain
The brains were homogenized in 10 parts by volume of 0.4 n perchloric acid. The homogenized mixture was stored at -20° C. overnight, thereafter it was thawed and centrifuged as described above. A sample of the homogenized mixture corresponding to 0.5 g of brain was removed, the pH of the sample was adjusted to 8.0±0.1 with 0.1 molar tris-buffer of the above composition, and the sample was processed as described above for the determination of the noradrenaline content of heart and spleen, with the difference that 1.5 ml of 0.05 n perchloric acid were applied as eluting agent. 0.5 ml of the eluate were applied to determine the noradrenaline and dopamine contents. The measurement was performed as described above, with the difference that samples of 0.5 ml were applied for the recording of the fluorescency of noradrenaline. The residua was placed for 50 minutes into a drying oven heated to 100° C., thereafter the sample was cooled with ice water, and the fluorescency of dopamine was recorded at wavelengths of 325 nm (excitation) and 380 nm (emission).
In a further test series the serotonine and 5-hydroxy-indolylacetic acid contents were also determined, beside the determination of the noradrenaline and dopamine content, from the same sample. In this instance the brains were homogenized in 10 ml of 75% ethanol, 0.2 ml of EDTA-Na2 and 5% of ascorbic acid were added to the homogenized mixtures, and the homogenized mixtures were maintained at -20° C. overnight. The mixtures were centrifuged as described above, and 5.0 ml samples of the supernatant were removed. The samples were diluted with equal volumes of distilled water, and poured onto ion exchange columns of 0.5×1.5 cm dimensions, filled with buffered Amberlite CG-30 (200 to 400 mesh). The columns were washed with 5 ml of distilled water followed by 1.0 ml of 0.2 n hydrochloric acid, and the first effluent and the aqueous wash were collected for the determination of 5-hydroxy-indolylacetic acid. Elution was continued with further 1.2 ml of 0.2 n hydrochloric acid in order to remove noradrenaline, dopamine and serotonine. Samples of 0.3 ml were used for the determinations.
Noradrenaline and dopamine were determined by the method of Shellenberger, modified as described above, whereas serotonine was determined by the method of Curzon et al. (Brit. J. Pharmacol. 39, 653/1970/). The basic method was modified as follows: A 0.5% solution of ortho-phthal(di)aldehyde in absolute ethanol was diluted with 10 n hydrochloric acid to 50-fold of its original volume, and 0.6 ml of the resulting 0.01% ortho-phthal(di)aldehyde solution were added immediately to 0.5 ml of the serotonine-containing sample. The sample was placed into a hot water bath for 10 minutes, thereafter cooled with tap water, and the fluorescency was recorded at wavelengths of 360 nm (excitation) and 490 nm (emission).
In the tests disulfiram, 2,2-dipyridyl, bis(1-methyl-4-homopiperazinyl-thriocaronyl)-disulfide, sodium diethyldithiocarbamate and N-phenyl-N'-(2-thiazolyl)-thiourea were applied as reference substances. […]

dopamine-β-hydroxylase [3] = assay: Determination of the noradrenaline content of heart; format: in vivo, male Wistar rats; conditions: i.p., ± standard error
Protocol: as §1, §2, §3
(§4) Determination of the noradrenaline content of heart and spleen
(§5) The organs were weighed in frozen state and then homogenized in 5.0 ml of 0.4 n perchloric acid containing 0.05% of EDTA-Naa and 0.1% of Na2 S2 O5. The homogenized mixtures were centrifuged as described above for the treatment of adrenal gland, the supernatants were decanted, and the pH was adjusted to 8.0±0.1 with a 0.1 molar tris buffer containing 20 g/l of NaOH and 25 g/l of EDTA-Na2. 100 mg of prepared Al2 O3 (Anton et al.: J. Pharm. Ther. 138, 360/1962/) were added to the samples, and the mixtures were shaken mechanically for 20 minutes. Thereafter Al2 O3 was washed with 2×10 ml of distilled water, and noradrenaline was eluted with 1.0 ml of 0.05 n perchloric acid. 0.5 ml samples of the eluate were applied for the determination of noradrenaline. Noradrenaline was determined according to the method of Shellenberger et al. (Anal. Biochem. 39, 356/1971/), with the following modifications of the basic procedure: 0.5 ml of 0.1 molar Na-K-phosphate buffer, containing 9 g/l of EDTA-Na2, were added to 0.5 ml of the eluate, and the catecholamines (noradrenaline in the examination of heart and spleen and noradrenaline and dopamine in the examination of the cerebrum) were oxidized with 0.1 ml of a 0.1 n iodine solution in 5% potassium iodide. After exactly 2 minutes oxidation was stopped by adding 0.25 ml of a 2.5% sodium sulfite solution in 4.4 n aqueous sodium hydroxide to the mixture. 2 minutes after the introduction of the alkaline sulfite solution 0.2 ml of concentrated acetic acid were added to the samples, upon which the pH decreased to 4.4 to 4.5 Thereafter the samples were placed for 5 minutes into a drying oven heated to 100° C., and then the samples were cooled with ice water. The fluorescency of noradrenaline was measured with an OPTON spectrophotometer at wavelengths of 380 nm (excitation) and 490 nm (emission).
(§6) In the tests disulfiram, 2,2-dipyridyl, bis(1-methyl-4-homopiperazinyl-thriocaronyl)-disulfide, sodium diethyldithiocarbamate and N-phenyl-N'-(2-thiazolyl)-thiourea were applied as reference substances. The values indicated in Table 1 are the percentages in relation to the amine levels of the controls measured in the same tests (± standard error). The statistical calculations were performed on a TPA/i type computer, using Student's t test.

dopamine-β-hydroxylase [4] = assay: Determination of the noradrenaline content of spleen; format: in vivo, male Wistar rats; conditions: i.p.
Protocol: as §1, §2, §3, §4, §5, §6

dopamine-β-hydroxylase [5] = assay: Determination of the adrenaline content of adrenal gland; format: in vivo, male Wistar rats; conditions: i.p., ± standard error
Protocol: as §1, §2, §3
Determination of the adrenaline content of adrenal gland
The adrenal glands were freed from fat and homogenized in 3.0 ml of ice-cold 0.4 n perchloric acid. The homogenized mixtures were centrifuged for 10 minutes at 0° C. with a speed of 3200 r.p.m. using a Janetzky K-70 type centrifuge. 0.05 ml samples were taken from the supernatant, and the adrenaline level was determined directly by the method of Laverty et al. (Anal. Biochem. 22, 269/1968/).
as §6

[6] = 200 mg/kg, 4 hours, ± standard error
[7] = 200 mg/kg, 8 hours, ± standard error

NNCc1ccccc1 [benzylhydrazine]
dopamine-β-hydroxylase inhibiting effects, in words (dopamine-β-hydroxylase [1]): exert dopamine-β-hydroxylase inhibiting effects
duration of activity, in words (dopamine-β-hydroxylase [1]): exert their activities for a short period

Cn1cc[nH]c1=S [methimazol]
dopamine-β-hydroxylase inhibiting effects, in words (dopamine-β-hydroxylase [1]): possess dopamine-β-hydroxylase inhibiting effects

CCCCc1ccc(C(=O)O)nc1 [Fusaric acid, 5-butyl-picolinic acid]
dopamine-β-hydroxylase inhibiting effects, in words (dopamine-β-hydroxylase [1]): strong dopamine-β-hydroxylase inhibiting effects

O=C(CO)c1coc(=O)c2c(O)cccc12 [Oosponol]
dopamine-β-hydroxylase inhibiting effects, in words (dopamine-β-hydroxylase [1]): strong dopamine-β-hydroxylase inhibiting effects

NNc1nncc2ccccc12 [Hydralazine]
dopamine-β-hydroxylase inhibiting effects, in words (dopamine-β-hydroxylase [1]): possess dopamine-β-hydroxylase inhibiting effects

CC(N)Cc1ccccc1 (stereo not shown) [amphetamine]
dopamine-β-hydroxylase inhibiting effects, in words (dopamine-β-hydroxylase [1]): possess dopamine-β-hydroxylase inhibiting effects

S=C(SSC(=S)C1=C(NC2CCCCC2)CCC1)C1=C(NC2CCCCC2)CCC1 [Compound M-5, 2-(N-cyclohexyl)-amino-cyclopent-1-ene-thiocarboxylic acid disulfide]
Brain DA (dopamine) level, percentages in relation to the controls (dopamine-β-hydroxylase [2]; 200 mg/kg, 4 hours): 124.2±4.0%
Brain NA (noradrenaline) level, percentages in relation to the controls (dopamine-β-hydroxylase [2]; 200 mg/kg, 4 hours): 64.6±1.8%
Brain DA (dopamine) level, percentages in relation to the controls (dopamine-β-hydroxylase [2]; 200 mg/kg, 8 hours): 116.2±3.3%
Brain NA (noradrenaline) level, percentages in relation to the controls (dopamine-β-hydroxylase [2]; 200 mg/kg, 8 hours): 76.9±2.2%
Heart NA (noradrenaline) level, percentages in relation to the controls (dopamine-β-hydroxylase [3]; 200 mg/kg, 4 hours): 94.7±6.8%
Heart NA (noradrenaline) level, percentages in relation to the controls (dopamine-β-hydroxylase [3]; 200 mg/kg, 8 hours): 89.5±3.0%
Spleen NA (noradrenaline) level, percentages in relation to the controls (dopamine-β-hydroxylase [4]; [6]): 83.2±8.9%
Spleen NA (noradrenaline) level, percentages in relation to the controls (dopamine-β-hydroxylase [4]; [7]): 68.7±6.7%
Adrenal gland AD (adrenaline) level, percentages in relation to the controls (dopamine-β-hydroxylase [5]; 200 mg/kg, 4 hours): 109.0±2.3%
Adrenal gland AD (adrenaline) level, percentages in relation to the controls (dopamine-β-hydroxylase [5]; 200 mg/kg, 8 hours): 105.6±3.3%

NC1=C(C(=S)SSC(=S)C2=C(N)CCC2)CCC1 [Compound M-1]
Brain DA (dopamine) level, percentages in relation to the controls (dopamine-β-hydroxylase [2]; 100 mg/kg, 4 hours): 121.2±5.8%
Brain NA (noradrenaline) level, percentages in relation to the controls (dopamine-β-hydroxylase [2]; 100 mg/kg, 4 hours): 69.5±12.1%
Brain DA (dopamine) level, percentages in relation to the controls (dopamine-β-hydroxylase [2]; 200 mg/kg, 4 hours): 124.5±1.9%
Brain NA (noradrenaline) level, percentages in relation to the controls (dopamine-β-hydroxylase [2]; 200 mg/kg, 4 hours): 56.7±5.9%
Brain DA (dopamine) level, percentages in relation to the controls (dopamine-β-hydroxylase [2]; 200 mg/kg, 8 hours): 109.0±5.9%
Brain NA (noradrenaline) level, percentages in relation to the controls (dopamine-β-hydroxylase [2]; 200 mg/kg, 8 hours): 56.5±6.3%
Heart NA (noradrenaline) level, percentages in relation to the controls (dopamine-β-hydroxylase [3]; 100 mg/kg, 4 hours): 86.5±3.7%
Heart NA (noradrenaline) level, percentages in relation to the controls (dopamine-β-hydroxylase [3]; 200 mg/kg, 4 hours): 82.5±5.4%
Heart NA (noradrenaline) level, percentages in relation to the controls (dopamine-β-hydroxylase [3]; 200 mg/kg, 8 hours): 83.2±9.5%
Spleen NA (noradrenaline) level, percentages in relation to the controls (dopamine-β-hydroxylase [4]; [6]): 92.6±12.4%
Spleen NA (noradrenaline) level, percentages in relation to the controls (dopamine-β-hydroxylase [4]; [7]): 91.2±12.6%
Adrenal gland AD (adrenaline) level, percentages in relation to the controls (dopamine-β-hydroxylase [5]; 100 mg/kg, 4 hours): 87.2±6.7%
Adrenal gland AD (adrenaline) level, percentages in relation to the controls (dopamine-β-hydroxylase [5]; 200 mg/kg, 4 hours): 70.9±5.8%
Adrenal gland AD (adrenaline) level, percentages in relation to the controls (dopamine-β-hydroxylase [5]; 200 mg/kg, 8 hours): 60.2±3.2%

CN1CCCN(C(=S)SSC(=S)N2CCCN(C)CC2)CC1 [FLA-63, bis(1-methyl-4-homopiperazinyl)-thiocarbonyl-disulfide, reference compound]
Brain DA (dopamine) level, percentages in relation to the controls (dopamine-β-hydroxylase [2]; 50 mg/kg, 4 hours): 118%
Brain NA (noradrenaline) level, percentages in relation to the controls (dopamine-β-hydroxylase [2]; 50 mg/kg, 4 hours): 24.6%
Heart NA (noradrenaline) level, percentages in relation to the controls (dopamine-β-hydroxylase [3]; 50 mg/kg, 4 hours): 96%
Spleen NA (noradrenaline) level, percentages in relation to the controls (dopamine-β-hydroxylase [4]; 50 mg/kg, 4 hours): 58%
Adrenal gland AD (adrenaline) level, percentages in relation to the controls (dopamine-β-hydroxylase [5]; 50 mg/kg, 4 hours): 43%
dopamine-β-hydroxylase inhibition under in vivo conditions, in words (dopamine-β-hydroxylase [1]; in vivo): one of the most potent dopamine-β-hydroxylase inhibitors under in vivo conditions

NOCc1ccccc1 [benzyloxyamine]
dopamine-β-hydroxylase inhibiting effects, in words (dopamine-β-hydroxylase [1]): exert dopamine-β-hydroxylase inhibiting effects
duration of activity, in words (dopamine-β-hydroxylase [1]): exert their activities for a short period

CCN(CC)C(=S)S [diethyl dithiocarbamate]
dopamine-β-hydroxylase inhibiting effects, in words (dopamine-β-hydroxylase [1]): strong dopamine-β-hydroxylase inhibiting effects
